Data as given in patent US11317626B2, “Forchlorfenuron mixtures and uses thereof” (Valent BioSciences LLC, priority 2018, dated 2022).

Experiments:
Type in all cases: in vivo
Concord grape vines [1] = assay: Example 1: bud break and shoot growth of potted Concord grape vines in greenhouse; conditions: for 0-50% BB: days from bud break on the first plant to 50% of the plants with bud break, synchrony
Text: An aqueous 50% hydrogen cyanamide solution (Sigma-Aldrich, St. Louis, Mo. USA) was used as the source of hydrogen cyanamide (“HC”). The commercial product, Dormex® contains 50% hydrogen cyanamide (w/v) in an aqueous base.
Erger® was used as the source of 15-0-0 fertilizer. Erger® contains 15% total nitrogen as 3.1% ammoniacal nitrogen, 5.8% nitrate nitrogen, 6.1% urea nitrogen and 3.3% calcium derived from a mixture of ammonium nitrate, calcium nitrate and urea. Erger® is always used in combination with either 20% (w/v) Ca(NO3)2 or Activ Erger®. In the following examples, 15-0-0 fertilizer was applied at a rate of 208,340 ppm calcium nitrate, 15,060 ppm nitrogen nitrate and 15,660 ppm urea or 239,060 ppm total.
CAN-17 was used as the 17-0-0 fertilizer. CAN-17 contains 17% total nitrogen as 4.6% ammonium nitrogen and 11.6% nitrate nitrogen and 1.3% urea nitrogen and 8.8% calcium derived from ammonium nitrate and calcium nitrate. CAN-17 is available from J. R. Simplot Company (Boise, Id., USA). In the following examples, 17-0-0 fertilizer was applied at a rate of 118,200 ppm calcium nitrate and 78,900 ppm nitrogen nitrate or 197,100 ppm total. See, Table 1 below, for ratios of forchlorfenuron (“CPPU”) to fertilizer that were used in the following examples.
To assess the ability of mixtures of the invention to promote and synchronize bud break these mixtures were applied to Concord grape vines and examined for bud break (initiation of growth) and subsequent shoot development. Specifically, dormant bare-rooted Concord grape vines were planted in pots containing Pro-Mix® BX potting soil (Pro-Mix is a registered trademark of and available from Premier Horticulture Ltd.) and pruned to five nodes on a single shoot of one-year-old wood. Nodes are regions on the shoot where leaves arise from the shoot and buds are present at the axis of the shoot:leaf interface. The bud found at the shoot:leaf interface develops into the vines new shoot growth. Aqueous solutions of forchlorfenuron, HC, 15-0-0 fertilizer, 17-0-0 fertilizer, and mixtures thereof were each applied individually or sequentially or co-applied to the first-year wood of separate Concord grape vines. Plants were grown in a heated greenhouse for 49 days and evaluated for percent of vines showing bud break, periodically between seven days after application and the conclusion of the experiment. Percent bud break is determined by the number of plants that have at least one bud broken divided by the total number of plants per treatment times 100. At 51 days after treatment (“DAT”), the plants were sacrificed and measured for total number of flower clusters, total new shoot length, longest new shoot, combined new shoot fresh weight. New shoot growth is the growth arising from the dormant buds not including the woody growth that was planted and gave rise to the new growth.
(§1) To determine if the mixtures provided unexpected results, the observed combined efficacy (“OCE”) was divided by the expected combined efficacy (“ECE”) wherein the expected ECE is calculated by the Abbott method: ECE=A+B−(AB/100), • wherein ECE is the expected combined efficacy and in which A and B are the speed of bud break relative to control, the number of buds broken per plant relative to control, shoot length relative to control or shoot weight relative to control given by the single active ingredients. If the ratio between the OCE of the mixture and the ECE of the mixture is greater than 1, then greater than expected interactions are present in the mixture. (Gisi, Synergistic Interaction of Fungicides in Mixtures, The American Phytopathological Society, 86:11, 1273-1279,1996). Results

Concord grape vines [2] = assay: Example 2: Concord grape vines greenhouse, forchlorfenuron and 17-0-0 fertilizer (CAN17) study
Text: (§2) To assess the ability of mixtures of the invention to promote and synchronize bud break these mixtures were applied to Concord grape vines and examined for bud break (initiation of growth) and subsequent shoot development. Specifically, dormant bare-rooted Concord grape vines were planted in pots containing Pro-Mix® BX potting soil (Pro-Mix is a registered trademark of and available from Premier Horticulture Ltd.) and pruned to five nodes on a single shoot of one-year-old wood. Nodes are regions on the shoot where leaves arise from the shoot and buds are present at the axis of the shoot:leaf interface. The bud found at the shoot:leaf interface develops into the vines new shoot growth. Aqueous solutions of forchlorfenuron, HC, 15-0-0 fertilizer, 17-0-0 fertilizer, and mixtures thereof were each applied individually or sequentially or co-applied to the first-year wood of separate Concord grape vines. […] Percent bud break is determined by the number of plants that have at least one bud broken divided by the total number of plants per treatment times 100. […] New shoot growth is the growth arising from the dormant buds not including the woody growth that was planted and gave rise to the new growth.
as §1
(§3) The experiment from Example 1 was repeated with varying quantities of forchlorfenuron and fertilizers in a greenhouse experiment.

Concord grape vines [3] = assay: Example 2: Concord grape vines greenhouse, forchlorfenuron and 15-0-0 fertilizer (Erger) study
Text: as §2, §1, §3

[4] = system: Flame seedless grape vines; assay: Example 3: bud break on spurs of field-grown Flame seedless grape vines; conditions: 41 days post application
Description: as §1
To assess the ability of mixtures of the invention to promote and synchronize bud break, these mixtures were applied to field-grown Flame seedless grape vines in Thermal, Calif., and examined for bud break (initiation of growth) and subsequent shoot development. Forchlorfenuron, Dormex (50% HC), 15-0-0 (Erger®) and 17-0-0 fertilizers (CAN17), and mixtures thereof were each applied individually or sequentially (co-applied) to the separate spurs of Flame seedless grape vines. Plants were evaluated for bud break at 41 days after treatment. Results of these evaluations can be seen below in Tables 11 and 12.

Malus (apple) rootstocks = assay: Example 4: bud break and shoot growth of Malus (apple) rootstocks
Description: as §1
To assess the ability of mixtures of the invention to promote and synchronize bud break, these mixtures were applied to field-grown Malus (apple) rootstocks and examined for bud break (initiation of growth) and subsequent shoot development. Forchlorfenuron, Dormex (50% HC), 15-0-0 (Erger®) and 17-0-0 fertilizers (CAN17), and mixtures thereof were each applied individually or sequentially (co-applied) to the shoots of potted Malus rootstocks that were pruned to a height of 25 centimeters. Plants were evaluated for bud break at 28 days after treatment.

[5] = system: Prunus (stone fruit) plants; assay: Example 5: bud break and shoot growth of Prunus (stone fruit) plants in greenhouse
Description: as §1
To assess the ability of mixtures of the invention to promote and synchronize bud break, these mixtures were applied to Prunus (stone fruit) plants in the greenhouse and examined for bud break (initiation of growth) and subsequent shoot development. Forchlorfenuron, Dormex (50% HC), 15-0-0 (Erger®) and 17-0-0 fertilizers (CAN17), and mixtures thereof were each applied individually or sequentially (co-applied) to the shoots of Prunus plants. Plants were evaluated for bud break at 28 days after treatment.

[6] = combined shoot fresh weight, 52 days after planting
[7] = days after treatment to 50% bud break

SMILES: N#CN [1% HC (v/v), hydrogen cyanamide]
- Percentage of Concord Grape Vines with Dormancy Relieved (Concord grape vines [1]; 31 days after treatment, plants with at least one bud showing a green shoot emerging): 100%
- Percentage of Concord Grape Vines with Dormancy Relieved (Concord grape vines [1]; 34 days after treatment): 100%
- Percentage of Concord Grape Vines with Dormancy Relieved (Concord grape vines [1]; 36 days after treatment): 100%
- Percentage of Concord Grape Vines with Dormancy Relieved (Concord grape vines [1]; 38 days after treatment): 100%
- Percentage of Concord Grape Vines with Dormancy Relieved (Concord grape vines [1]; 43 days after treatment): 100%
- Percentage of Concord Grape Vines with Dormancy Relieved (Concord grape vines [1]; 45 days after treatment): 100%
- Percentage of Concord Grape Vines with Dormancy Relieved (Concord grape vines [1]; 51 days after treatment): 100%
- Broken Buds/Plant (Concord grape vines [1]; 51 days post-treatment): 2.50
- FW/Broken Bud (Concord grape vines [1]; 51 days post-treatment): 11.18 grams
- FW/Plant (Concord grape vines [1]; combined shoot fresh weight at 51 DAT): 27.95 grams
- 50% BB (Concord grape vines [1]; days from application to 50% of the plants showing at least one bud broken): 15 days
- 0-50% BB (Concord grape vines [1]): 4 days
- 0-50% BB (Concord grape vines [1]; listed as 1% HC): four
- Fresh Weight at Harvest (Concord grape vines [2]; [6]): 37.01 grams
- 50% BB (Concord grape vines [2]; [7]): 17 days
- Average Number of Broken Nodes Per Plant at Harvest (Concord grape vines [2]; harvest 52 days after planting): 2.38
- Fresh Weight at Harvest (Concord grape vines [3]; [6]): 42.21 grams
- 50% BB (Concord grape vines [3]; [7]): 17 days
- Average Number of Broken Nodes Per Plant at Harvest (Concord grape vines [3]; harvest 52 days after planting): 2.13
- Broken Buds per Spur (OCE) [4]: 1.48
- Percentage of Spurs With At Least One Bud Broken (OCE) [4]: 72%
- Fresh Weight at Harvest (Malus (apple) rootstocks; combined new shoot growth, harvest at 28 days): 7.99 grams
- 50% BB (Malus (apple) rootstocks; [7]): 12 days
- Average Number of Broken Buds Per Malus Plant at Harvest (Malus (apple) rootstocks; harvest at 28 days): 8.13
- Fresh Weight per Bud at Harvest (Malus (apple) rootstocks; harvest at 28 days): 0.98 grams
- Average Number of Broken Nodes Per Centimeter of Shoot at Harvest (Malus (apple) rootstocks; harvest at 28 days, rootstocks pruned to 25 centimeters): 0.325
- Fresh Weight at Harvest, FW ([5]; combined new shoot fresh weight, harvest at 28 days): 4.76 grams
- 50% BB [5, 7]: 7 days
